The values below come from patent US20160374985A1, “Bioactivity proanthocyanidin compound isolated from Lasia spinosa (L.) Thwait” (Hong Kong Baptist University, priority 2015, published 2016).

In data set [1] the test system is KYSE-150 cells. As to the kind of experiment: MTT cell viability, KYSE-150. Type of data set: cell-based, human. The conditions noted are these: 6.25 μg/mL. The protocol:
(§1) Murine RAW264.7 macrophages and human esophageal cancer cell lines KYSE-70, KYSE-150, KYSE-410, KYSE-520 were maintained in RPMI 1640 or DMEM medium supplemented with 100 U/mL penicillin, 100 μg/mL streptomycin and 10% FBS in an incubator at 37° C. with a humidified atmosphere of 5% CO2. Cells were sub-cultured every three days at a dilution of 1:6. In the present invention, PA1 was dissolved in dimethyl sulfoxide (DMSO) to make stock solutions which were further diluted in culture medium for this experiment. Cells were seeded in a 96-well plate (3×10^3 cells/well) and allowed to attach to the plate overnight. After the recovery, cells were treated with 1.56, 3.125, 6.25, 12.5, 25, 50 μg/mL of PA1 in culture medium for 48 h. Then, 20 μL of MTT (5 mg/mL stock in PBS) per well was added into the medium (200 μL) and incubated for 4 h at 37° C. Finally, the culture medium was removed and 200 μL of DMSO were added to dissolve the purple formazan crystals. Absorbance of the solution was measured using a microplate reader spectrophotometer (Bio-Rad Laboratories, Inc., Hercules, Calif.) at a wavelength of 570 nm.

The subject of data set [2] is KYSE-150 cells. As to the kind of experiment: Wound healing assay. Type of data set: cell-based, human. The settings on record: PA1 6.25 μg/mL, 72 hours. The protocol: (§2) Murine RAW264.7 macrophages and human esophageal cancer cell lines KYSE-70, KYSE-150, KYSE-410, KYSE-520 were maintained in RPMI 1640 or DMEM medium supplemented with 100 U/mL penicillin, 100 μg/mL streptomycin and 10% FBS in an incubator at 37° C. with a humidified atmosphere of 5% CO2. Cells were sub-cultured every three days at a dilution of 1:6.
6×10^4 cell/well were seeded in 12 well-plate at 30% confluence in completed medium. After 24 hours seeding, the monolayer was wounded by scoring with a sterile plastic tip (1 mL), then washed twice with PBS to remove cell debris and then incubated in a conditioned medium in the absence or presence of PA1 at 6.25 μg/mL for various periods of time up to 72 hours. Cell migration into the wound surface was monitored by Olympus IX71 microscopy and digitally photographed.
In addition, wound-healing assay was used to test whether those compounds could affect cell motility. A confluent monolayer of KYSE-150 cells was scratched to form a wound and incubated in the absence or presence of PA1 at 6.25 μg/mL. The results obtained were compared to that of controls.

The next data set deals with RAW264.7 macrophages. As to the kind of experiment: Cell viability of RAW macrophages. In kind it is cell-based, murine. The conditions noted are these: RAW cells, 1.56-50 μg/mL, 20 hours. The protocol:
as §1, with “After the recovery, cells were treated with 1.56, 3.125, 6.25, 12.5, 25, 50 μg/mL of PA1 in culture medium for 48 h.” left out

Another data set has as its system DSS-induced colitis. In words: DSS-induced colitis mouse model. Type of data set: in vivo, C57BL/6 mice. The source says:
7-week-old male C57BL/6 mice weighing about 20-22 g were purchased from the Laboratory Animal Services Center, the Chinese University of Hong Kong. The study protocols were approved by the committee for Care of Laboratory Animals in the School of Chinese Medicine at the Hong Kong Baptist University.
The animals were randomly assigned into five groups (n=8). Mice in the control group were supplied with distilled water whereas all other experimental groups were given 2.0% (w/v) dextran sulphate sodium (DSS) for 5 days. Thereafter, the mice of the DSS, SASP-treated (200 mg/kg/day) and PA1 (10 or 30 mg/kg/day)-treated groups were administered by gavage with saline, SASP or PA1 from day 6 to day 13, respectively.
The DAI was determined by scoring changes in the body weight, diarrhea, colon length, and bleeding.
The colons were dissected longitudinally, gently washed with ice-cold phosphate buffer saline (PBS), fixed in 4% paraformaldehyde overnight, and embedded in paraffin. Each of five-micro-meter sections was stained with hematoxylin/eosin according to a standard procedure to evaluate colonic damage.
Myeloperoxidase (MPO) is an enzyme mainly released by neutrophil, and its activity is directly associated with the severity of inflammation in a given tissue. In the present invention, MPO activity was measured as described in the inventor's earlier publication (Mu, H. X., et al., Anti-inflammatory Actions of (|)-3′alpha-Angeloxy-4′-keto-3′,4′-dihydroseselin (Pd-Ib) against Dextran Sulfate Sodium-Induced Colitis in C57BL/6 Mice. J Nat Prod, 2016). The results were normalized to the wet weight of colon tissue and quantified as units/g tissue.

The subject of data set [3] is LPS-stimulated RAW264.7 macrophages. As to the kind of experiment: Nitric oxide production determination (Griess reagent). Type of data set: cell-based, murine. The settings on record: LPS 100 ng/mL, PA1 1.56-50 μg/mL, vs LPS-alone. The protocol: Murine RAW264.7 macrophages and human esophageal cancer cell lines KYSE-70, KYSE-150, KYSE-410, KYSE-520 were maintained in RPMI 1640 or DMEM medium supplemented with 100 U/mL penicillin, 100 μg/mL streptomycin and 10% FBS in an incubator at 37° C. with a humidified atmosphere of 5% CO2. Cells were sub-cultured every three days at a dilution of 1:6. Nitric oxide (NO) production was indirectly assessed by measuring the nitrite levels in the cultured medium determined by a colorimetric method based on the Griess reagent. The cells were co-treated with various concentrations of PA1 in the absence or presence of LPS (100 ng/mL) at 37° C. for 24 hours. Then, 100 μL of each supernatant was mixed with the equal volume of Griess reagent incubated at room temperature for 15 minutes; meanwhile, sodium nitrite was used as a standard substance. The optical densities were measured at 540 nm with a micro-plate reader.

The subject of a further data set is KYSE-450 cells. In words: MTT cytotoxicity assay. Type of data set: cell-based. The settings on record: Homo sapiens, 48 h. The procedure:
as §2
as §1, with “In” for “Murine RAW264.7 macrophages and human esophageal cancer cell lines KYSE-70, KYSE-150, KYSE-410, KYSE-520 were maintained in RPMI 1640 or DMEM medium supplemented with 100 U/mL penicillin, 100 μg/mL streptomycin and 10% FBS in an incubator at 37° C. with a humidified atmosphere of 5% CO2. Cells were sub-cultured every three days at a dilution of 1:6. In”
To determine the cytotoxic effect of PA1 against human esophagus cancer cells (KYSE-70, KYSE-150, KYSE-450 and KYSE-520 cell lines), MTT (3-[4,5-dimethylthiazol-2-yl]-2,5-diphenyltetrazolium bromide) assay was performed.
(Tetrazolium dyes change colour on reduction, which living cells bring about.)

Setting [4] is: mice, 2% DSS, PA1 10 or 30 mg/kg/day by gavage day 6-13.

The structures appear in SMILES notation. In brackets after ≈: the same amount, converted by molar mass.

Broadly, the IC50 is the concentration needed to halve the response being measured.

On to `Oc1cc(O)c2c(c1)OC1(c3ccc(O)c(O)c3)Oc3cc(O)c4c(c3C2C1O)OC(c1ccc(O)c(O)c1)[C@@H](O)C4` (some centres unmarked) [PA1, proanthocyanidin A1], for which, in the data set with KYSE-150 cells [1], the Cell viability entry was “did not alter the cells viability”. In addition, the “Cell migration into the wound” value with KYSE-150 cells [2] is on record as “did not migrate into the wound”. For the same compound, the Cell viability result in the data set with RAW264.7 macrophages was “did not alter the cells viability”. Moreover, the “Colonic MPO activity” value with DSS-induced colitis (colon homogenates, day 14, vs DSS group) was “significantly lower the MPO activity”. The “Histological manifestation of colon (H&E)” value with DSS-induced colitis (mice, 2% DSS, PA1 10 or 30 mg/kg, vs DSS group) was “reduction in mucosal ulceration, crypt damage, edema, and cell infiltration into mucosal tissue”. In addition, in the data set on DSS-induced colitis (setting [4]), the “Disease activity index (DAI) score” value was “clinical improvement” and the Mortality entry is given as “decreased”. The Body weight loss result in the data set on DSS-induced colitis (mice, 2% DSS, PA1 10 or 30 mg/kg/day by gavage day 6-13, vs DSS group) is reported as “reduced body weight loss”. Further, in the data set with DSS-induced colitis (mice, 2% DSS, PA1 10 or 30 mg/kg/day by gavage, day 14), the “Shortening of colon length” value is “rectified”. Also, the NO production result in data set [3] is “significant inhibition of NO production”. Further, the IC50 with KYSE-450 cells stood at 48.6 µg/mL (≈ 84.4 µM).
